Molecules are shown by their SMILES. Values after ≈ are worked out from the molar mass of the structure shown.

Broadly, the solubility is how much of the substance goes into solution per volume. A high value points to much dissolved substance.

One data set can be described thus: physchem. The following applies: buffer, pH 7.4.
The conditions of data set [1]: buffer.

In “physchem”, `Fc1cnc(Nc2ccc(-c3nnn[nH]3)cc2)nc1Nc1ccccc1Cl` gave a solubility of 49 µg/mL (≈ 128 µM).

As for `Clc1ccccc1Nc1ccnc(Nc2ccc(-c3nnn[nH]3)cc2)n1`, in “physchem”, the solubility was 49 µg/mL (≈ 134 µM).

In “physchem”, `Oc1cc(Nc2ncc(F)c(Nc3ccccc3Cl)n2)ccc1-c1nnn[nH]1` had a solubility of 49 µg/mL (≈ 123 µM). As for `Clc1ccccc1Nc1nc(Nc2ccc(-c3nnn[nH]3)cc2)ncc1Cl`, the concentration in solution in the data set “physchem” (solubility) was 49 µg/mL (≈ 123 µM). Take `O=C(O)c1ccc(Nc2nccc(Nc3ccccc3F)n2)cc1`: the solubility entry in data set [1] is reported as “Insoluble”. Take `O=C(O)c1ccc(Nc2nccc(Nc3ccccc3Cl)n2)cc1O`: in data set [1], the solubility result is on record as “Insoluble”.

`O=C(O)c1ccc(Nc2nccc(Nc3ccccc3Cl)n2)cc1`: the solubility result in data set [1] was “Insoluble”. On the same count and under the same terms, the same measure for `O=C(O)c1ccc(Nc2ncc(F)c(Nc3ccccc3C(=O)O)n2)cc1`: “Insoluble”.

These data come from ChEMBL document CHEMBL2169801, “Development of o-chlorophenyl substituted pyrimidines as exceptionally potent aurora kinase inhibitors” (J Med Chem, 2012).
